From patent publication US20140249041A1, “Marker of Prostate Cancer” (Region Midtjylland, priority 2009, published 2014) come the findings set out here.

For test [1], the system named is SLC18A2 promoter CpG island. The test is described as follows: Bisulfite sequencing of SLC18A2 CpG island in cell lines before and after epigenetic drug treatment. Type of test: cell-based. The following applies: PSK-1 cells; 1 μM 5-aza-2′-deoxycytidine; from 69% before treatment. The method, then: For bisulfite sequencing, genomic DNA from prostate cell lines and carefully selected 20-μm sections of fresh-frozen Tissue-tek-embedded BPH, adenocarcinoma and adjacent non-malignant prostate tissue samples was isolated using the PUREGENE DNA Purification Kit (Gentra Systems) with proteinase K treatment (100 units, 30 min, 37 C), as previously described (29). Laser-microdissection was performed as described in (31). DNA was bisulfite converted using the MethylEasy DNA Bisulfite Modification Kit (Human Molecular Signaling, Sydney, Australia). The SLC18A2 promoter CpG island was PCR amplified with TEMPase Hot Start DNA Polymerase (Ampliqon) using primers 5′-[…]-3′ (SEQ ID NO: 8) and 5′-[…]-3′ (SEQ ID NO: 9). Gel purified (illustra GFX PCR DNA and Gel Band Purification Kit; GE Healthcare) amplicons were subcloned into the pCR4-TOPO vector (Invitrogen) and several clones sequenced using M13 forward and reverse primers. Clinicopathological data from patients undergoing methylation analysis is compiled in FIG. 4.
All cell lines were grown in RPMI 1640 with L-glutamin (Gibco, Invitrogen) supplemented with 10% fetal bovine serum, 100 U/ml penicillin and 100 μg/ml streptomycin. LNCaP, PC-3, DU145, and 22rv1 cells were obtained from ATCC, BPH-1 cells from DSMZ (Braunschweig, Germany), and PNT1A cells from ECACC. […]

The subject of test [2] is SLC18A2 expression. The test is described as follows: SLC18A2 expression by real-time PCR in cell lines after epigenetic drug treatment. Type of test: cell-based. The method, then:
RNA Preparation, cDNA Synthesis and Quantitative RT-PCR Total RNA from cultured cells and prostate tissue samples was isolated with the RNeasy MinElute Cleanup Kit (Qiagen), as described elsewhere (20). First-strand cDNA synthesis was performed with SuperScript II Reverse Transcriptase (Invitrogen) using oligo(dT) priming. SLC18A2 expression was measured with TaqMan Gene Expression Assay Hs00161858_ml and TaqMan Universal PCR Master Mix on a real-time ABI PRISM 7500 Sequence Detection System (all from Applied Biosystems). For normalization, UBC expression was measured using primers 5′-GATTTGGGTCGCGGTTCTT-3′ (SEQ ID NO: 6) plus 5′-[…]-3′ (SEQ ID NO: 7) and SYBR GREEN PCR Master Mix (Applied Biosystems). All reactions were run in triplicates.
All cell lines were grown in RPMI 1640 with L-glutamin (Gibco, Invitrogen) supplemented with 10% fetal bovine serum, 100 U/ml penicillin and 100 μg/ml streptomycin. LNCaP, PC-3, DU145, and 22rv1 cells were obtained from ATCC, BPH-1 cells from DSMZ (Braunschweig, Germany), and PNT1A cells from ECACC. PSK-1 cells were kindly provided by Dr. Adrie van Boekhoven (University of Colorado), VCaP and DuCaP cells by Dr. Kenneth Pienta (University of Michigan), and H69 and H69A cells by Dr. Marie Stampe Ostenfeld (Danish Cancer Society, Copenhagen, Denmark). Cell lines were treated with 1 μM 5-aza-2′-deoxycytidine (Sigma) for 48 h and allowed 5 days recovery in complete medium. Four cell lines were given a combination of 1 μM 5-aza-2′-deoxycytidine (48 h treatment plus 5 days recovery) and 1 mM 4-phenylbutyric acid (Sigma) (continuously for 7 days). Mock treated cells were given buffer only. Growth media were changed daily and cells harvested on day 7. All experiments were performed in duplicate and repeated 2-3 times.
(In general: In qPCR the cycle at which signal appears reflects the starting amount.)

Turning to `Nc1ncn([C@H]2C[C@H](O)[C@@H](CO)O2)c(=O)n1` [5-aza-2′-deoxycytidine], in test [1], the “CpG island methylation after treatment” value was determined as 11%. Also, the “induction of SLC18A2 expression” value in test [2] (H69A cells (derived adherent line), 1 μM 5-aza-2′-deoxycytidine) is recorded as “not observed”; in test [2] (H69 cells, 1 μM 5-aza-2′-deoxycytidine 48 h plus 5 days recovery) it was “induced SLC18A2 expression”; in test [2] (PSK-1 cells, 1 μM 5-aza-2′-deoxycytidine 48 h plus 5 days recovery), “induced SLC18A2 expression”.
